Experimental data taken from US9914730B2, “Azaquinazoline inhibitors of Atypical protein Kinase C” (Ignyta, Inc., priority 2012, dated 2018).

Tests used:
[1] = biological target: T1, full-length human PKCι (Homo sapiens, UniProt P41743); assay: PKCι IC50 IMAP assay, full-length PKCι at 150 μM ATP; type: biochemical; settings: read-out: IC50 in IMAP assay against full length PKCi at 150 μM ATP
T1 construct: Recombinant, full-length human PKCι expressed in Sf21 insect cells is also commercially available; purchased; host or cells: Sf21 insect cells
T1 sequence (P41743 1-596): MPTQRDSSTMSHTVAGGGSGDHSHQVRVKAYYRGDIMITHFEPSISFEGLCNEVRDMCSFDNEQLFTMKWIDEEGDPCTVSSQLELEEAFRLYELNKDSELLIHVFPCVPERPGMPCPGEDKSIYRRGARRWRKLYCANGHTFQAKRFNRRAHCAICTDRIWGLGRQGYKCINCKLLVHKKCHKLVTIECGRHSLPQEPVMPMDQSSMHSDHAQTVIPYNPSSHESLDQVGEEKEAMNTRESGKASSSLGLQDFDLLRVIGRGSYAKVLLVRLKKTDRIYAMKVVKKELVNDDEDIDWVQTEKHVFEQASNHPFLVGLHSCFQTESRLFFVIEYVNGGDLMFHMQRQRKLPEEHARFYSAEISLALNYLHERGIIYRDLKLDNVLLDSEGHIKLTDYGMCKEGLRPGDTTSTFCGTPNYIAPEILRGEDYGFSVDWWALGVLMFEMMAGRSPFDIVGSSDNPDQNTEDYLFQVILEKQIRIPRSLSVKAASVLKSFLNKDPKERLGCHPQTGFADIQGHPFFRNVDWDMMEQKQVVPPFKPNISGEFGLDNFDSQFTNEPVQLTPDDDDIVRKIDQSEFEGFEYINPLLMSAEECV
Procedure, shortened: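 Compounds in 4% final DMSO are mixed with Sf21-derived full-length human PKCι (typically 15 pM) and 100 nM FAM-labelled pseudosubstrate peptide, then started with 150 μM ATP. Reaction runs 60 min at room temperature, is quenched with IMAP development reagent for 2 h, and fluorescence polarisation is measured to derive IC50.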

[2] = tested on: NSCLC cells; settings: pharmacological inhibition of PKCι; literature (Regala et al.); cited from earlier work
[3] = tested on: follicular lymphoma; settings: by targeting a PKCζ-MAPK-mTOR pathway; literature (Leseux et al.); cited from earlier work

Molecule	melting point [°C]	IC50 [1] [nM]	growth of NSCLC cells in soft agar [2]	follicular lymphoma proliferation [3]
N#Cc1ccc(CC(=O)Nc2cc(-c3nc(N4CCNCC4)c4c(C5CC5)cncc4n3)ccn2)cc1 [Example 473, 2-(4-Cyano-phenyl)-N-[4-(5-cyclopropyl-4-piperazin-1-yl-pyrido[3,4-d]pyrimidin-2-yl)-pyridin-2-yl]-acetamide]	200 to 203	< 100		
COc1cncc2nc(-c3ccnc(Nc4ccccc4)c3)nc(N3CCC(C#N)CC3)c12 [Example 461, 1-[5-Methoxy-2-(2-phenylamino-pyridin-4-yl)-pyrido[3,4-d]pyrimidin-4-yl]-piperidine-4-carbonitrile]	242 to 244	1000 to 10000		
COc1cncc2nc(-c3ccnc(Nc4ccccc4)c3)nc(N3CC[C@@H](CO)C3)c12 [Example 465, {(R)-1-[5-Methoxy-2-(2-phenylamino-pyridin-4-yl)-pyrido[3,4-d]pyrimidin-4-yl]-pyrrolidin-3-yl}-methanol]	208 to 209	1000 to 10000		
O=C(O)CC([S-])C(=O)O.[Au+] (centres unmarked) [aurothiomalate]			blocks the growth	
COc1cncc2nc(-c3ccnc(Nc4ccccc4)c3)nc(N3CC[C@H](CO)C3)c12 [Example 466, {(S)-1-[5-Methoxy-2-(2-phenylamino-pyridin-4-yl)-pyrido[3,4-d]pyrimidin-4-yl]-pyrrolidin-3-yl}-methanol]	210 to 211	1000 to 10000		
COc1cncc2nc(-c3ccnc(Nc4ccccc4)c3)nc(N3CCC(F)CC3)c12 [Example 462, {4-[4-(4-Fluoro-piperidin-1-yl)-5-methoxy-pyrido[3,4-d]pyrimidin-2-yl]-pyridin-2-yl}-phenyl-amine]	202 to 205	10000 to 40000		
c1ccc(Nc2cc(-c3nc(N4CCNCC4)c4c(C5CC5)cncc4n3)ccn2)cc1 [Example 481, [4-(5-Cyclopropyl-4-piperazin-1-yl-pyrido[3,4-d]pyrimidin-2-yl)-pyridin-2-yl]-phenyl-amine]	221 to 226			
COc1cncc2nc(-c3ccnc(Nc4ccccc4)c3)nc(N3CC[C@H](O)[C@H](O)C3)c12 (racemic) [Example 436, (±)-cis-1-[5-Methoxy-2-(2-phenylamino-pyridin-4-yl)-pyrido[3,4-d]pyrimidin-4-yl]-piperidine-3,4-diol]	241 to 243	100 to 1000		
COc1cncc2nc(-c3ccnc(Nc4ccccc4)c3)nc(N3CCCCC3)c12 [Example 459, [4-(5-Methoxy-4-piperidin-1-yl-pyrido[3,4-d]pyrimidin-2-yl)-pyridin-2-yl]-phenyl-amine]	221 to 223	10000 to 40000		
Cc1cc(N2CCOCC2)ccc1Nc1cc(-c2nc(N3CCNCC3)c3c(C4CC4)cncc3n2)ccn1 [Example 474, [4-(5-Cyclopropyl-4-piperazin-1-yl-pyrido[3,4-d]pyrimidin-2-yl)-pyridin-2-yl]-(2-methyl-4-morpholin-4-yl-phenyl)-amine]	214 to 220	< 100		
COc1cncc2nc(-c3ccnc(Nc4ncccn4)c3)nc(N3CCNCC3)c12 [Example 423, [4-(5-Methoxy-4-piperazin-1-yl-pyrido[3,4-d]pyrimidin-2-yl)-pyridin-2-yl]-pyrimidin-2-yl-amine]	200 to 203	100 to 1000		
COc1cccc(Nc2cc(-c3nc(N4CCNCC4)c4c(OC)cncc4n3)ccn2)n1 [Example 448, [4-(5-Methoxy-4-piperazin-1-yl-pyrido[3,4-d]pyrimidin-2-yl)-pyridin-2-yl]-(6-methoxy-pyridin-2-yl)-amine]	189 to 191	< 100		
c1cncc(Nc2cc(-c3nc(N4CCNCC4)c4c(C5CC5)cncc4n3)ccn2)c1 [Example 476, [4-(5-Cyclopropyl-4-piperazin-1-yl-pyrido[3,4-d]pyrimidin-2-yl)-pyridin-2-yl]-pyridin-3-yl-amine]	226 to 228	< 100		
COc1cncc2nc(-c3ccnc(Nc4ccc(Cl)nc4)c3)nc(N3CCNCC3)c12 [Example 405, (6-Chloro-pyridin-3-yl)-[4-(5-methoxy-4-piperazin-1-yl-pyrido[3,4-d]pyrimidin-2-yl)-pyridin-2-yl]-amine]	206 to 208	< 100		
Rituximab: "the anti-CD20 therapeutic antibody rituximab"				inhibits follicular lymphoma proliferation
c1cc(-c2nc(N3CCNCC3)c3c(C4CC4)cncc3n2)cc(Nc2ccc(N3CCOCC3)nc2)n1 [Example 475, [4-(5-Cyclopropyl-4-piperazin-1-yl-pyrido[3,4-d]pyrimidin-2-yl)-pyridin-2-yl]-(6-morpholin-4-yl-pyridin-3-yl)-amine]	217 to 219	< 100		
